{
  "source": "patent US8193221B2",
  "about": "“Insecticidal compounds” (Syngenta Crop Protection LLC, priority 2007, dated 2012)",
  "assay_type_in_all_cases": "in vivo",
  "key": {"[1]": {"system": "Spodoptera littoralis", "test": "Spodoptera littoralis (Egyptian cotton leafworm) cotton leaf disc spray test", "settings": "for pest or weed control at 200 ppm: foliar, 72 h, read-out: control of Spodoptera littoralis; for damage to the test organisms: same protocol, 200 ppm", "text": "Spodoptera littoralis (Egyptian Cotton Leafworm):\nCotton leaf discs were placed on agar in a 24-well microtiter plate and sprayed with test solutions at an application rate of 200 ppm. After drying, the leaf discs were infested with 5 L1 larvae. The samples were checked for mortality, feeding behavior, and growth regulation 3 days after treatment (DAT)."}, "[2]": {"system": "Plutella xylostella", "test": "Plutella xylostella (diamond back moth) larval test on artificial diet", "settings": "same protocol, 200 ppm", "procedure": "Plutella xylostella (Diamond Back Moth):\n(§1) 24-well microtiter plate (MTP) with artificial diet was treated with test solutions at an application rate of 200 ppm (concentration in well 18 ppm) by pipetting. After drying, the MTP's were infested with L2 larvae (7-12 per well). After an incubation period of 6 days, samples were checked for larval mortality and growth regulation."}, "[3]": {"system": "Heliothis virescens", "test": "Heliothis virescens (tobacco budworm) egg test on artificial diet", "settings": "same protocol, 200 ppm", "procedure": "Heliothis virescens (Tobacco Budworm):\nEggs (0-24 h old) were placed in 24-well microtiter plate on artificial diet and treated with test solutions at an application rate of 200 ppm (concentration in well 18 ppm) by pipetting. After an incubation period of 4 days, samples were checked for egg mortality, larval mortality, and growth regulation."}, "[4]": {"system": "Diabrotica balteata", "test": "Diabrotica balteata (corn root worm) larval test on artificial diet", "settings": "same protocol, 200 ppm", "procedure": "Diabrotica balteata (Corn Root Worm):\nas §1, with “A 24-well” for “24-well”, “(6-10” for “(7-12”, “5” for “6”"}, "[5]": {"system": "Thrips tabaci", "test": "Thrips tabaci (onion thrips) sunflower leaf disc spray test", "settings": "same protocol, 200 ppm", "procedure": "Thrips tabaci (Onion Trips):\nSunflower leaf discs were placed on agar in a 24-well microtiter plate and sprayed with test solutions at an application rate of 200 ppm. After drying, the leaf discs were infested with an […] population of mixed ages. After an incubation period of 7 days, samples were checked for mortality."}, "[6]": {"system": "Tetranychus urticae", "test": "Tetranychus urticae (two-spotted spider mite) bean leaf disc spray test", "settings": "same protocol, 200 ppm", "text": "Tetranychus urticae (Two-Spotted Spider Mite):\nBean leaf discs on agar in 24-well microtiter plates were sprayed with test solutions at an application rate of 200 ppm. After drying, the leaf discs are infested with mite populations of mixed ages. 8 days later, discs are checked for egg mortality, larval mortality, and adult mortality."}, "[7]": {"settings": "200 ppm sprayed on cotton leaf discs, L1 larvae, mortality, feeding behavior, growth regulation 3 DAT"}},
  "note": "Read-outs that look alike come from different tables or passages of the source.",
  "data": [
    {"smiles": "Cc1cc(C2=NOC(c3cc(Cl)cc(Cl)c3)(C(F)(F)F)C2)ccc1/C(N)=N/O", "note": "(centres unmarked) [Compound A1, 4-[5-(3,5-dichloro-phenyl)-5-trifluoromethyl-4,5-dihydro-isoxazol-3-yl]-N-hydroxy-2-methyl-benzamidine]", "values": [
      {"measurement": "pest or weed control at 200 ppm", "setting": "[1]; [7]", "result": "≥ 80", "unit": "%"}
    ]},
    {"smiles": "C#CCONC(=N)c1ccc(C2=NOC(c3cc(Cl)cc(Cl)c3)(C(F)(F)F)C2)cc1C", "note": "(centres unmarked) [Compound A2, 4-[5-(3,5-dichloro-phenyl)-5-trifluoromethyl-4,5-dihydro-isoxazol-3-yl]-2-methyl-N-prop-2-ynyloxy-benzamidine]", "values": [
      {"measurement": "pest or weed control at 200 ppm", "setting": "[1]", "result": "≥ 80", "unit": "%"}
    ]},
    {"smiles": "[H]/N=C(\\NOC)c1ccc(C2=NOC(c3cc(Cl)cc(Cl)c3)(C(F)(F)F)C2)cc1C", "note": "(centres unmarked) [Compound A3]", "values": [
      {"measurement": "pest or weed control at 200 ppm", "setting": "[1]; [7]", "result": "≥ 80", "unit": "%"}
    ]},
    {"smiles": "[H]/N=C(\\NOCC)c1ccc(C2=NOC(c3cc(Cl)cc(Cl)c3)(C(F)(F)F)C2)cc1C", "note": "(centres unmarked) [Compound A4]", "values": [
      {"measurement": "pest or weed control at 200 ppm", "setting": "[1]; [7]", "result": "≥ 80", "unit": "%"}
    ]},
    {"smiles": "[H]/N=C(\\NOCC=C)c1ccc(C2=NOC(c3cc(Cl)cc(Cl)c3)(C(F)(F)F)C2)cc1C", "note": "(centres unmarked) [Compound A5]", "values": [
      {"measurement": "pest or weed control at 200 ppm", "setting": "[1]; [7]", "result": "≥ 80", "unit": "%"}
    ]},
    {"smiles": "[H]/N=C(\\NOCCCC)c1ccc(C2=NOC(c3cc(Cl)cc(Cl)c3)(C(F)(F)F)C2)cc1C", "note": "(centres unmarked) [Compound A6]", "values": [
      {"measurement": "pest or weed control at 200 ppm", "setting": "[1]; [7]", "result": "≥ 80", "unit": "%"}
    ]},
    {"smiles": "CCOC(=O)/C=C/CONC(=N)c1ccc(C2=NOC(c3cc(Cl)cc(Cl)c3)(C(F)(F)F)C2)cc1C", "note": "(centres unmarked) [Compound A13]", "values": [
      {"measurement": "damage to the test organisms", "setting": "[2]", "result": "little or no damage"},
      {"measurement": "damage to the test organisms", "setting": "[3]", "result": "little or no damage"},
      {"measurement": "damage to the test organisms", "setting": "[4]", "result": "little or no damage"},
      {"measurement": "damage to the test organisms", "setting": "[5]", "result": "little or no damage"},
      {"measurement": "damage to the test organisms", "setting": "[1]", "result": "little or no damage"},
      {"measurement": "damage to the test organisms", "setting": "[6]", "result": "little or no damage"}
    ]},
    {"smiles": "Cc1cc(C2=NOC(c3cc(Cl)cc(Cl)c3)(C(F)(F)F)C2)ccc1C(=N)NOCC1CCCCO1", "note": "(centres unmarked) [Compound A14]", "values": [
      {"measurement": "damage to the test organisms", "setting": "[2]", "result": "little or no damage"},
      {"measurement": "damage to the test organisms", "setting": "[3]", "result": "little or no damage"},
      {"measurement": "damage to the test organisms", "setting": "[4]", "result": "little or no damage"},
      {"measurement": "damage to the test organisms", "setting": "[5]", "result": "little or no damage"},
      {"measurement": "damage to the test organisms", "setting": "[1]", "result": "little or no damage"},
      {"measurement": "damage to the test organisms", "setting": "[6]", "result": "little or no damage"}
    ]},
    {"smiles": "Cc1cc(C2=NOC(c3cc(Cl)cc(Cl)c3)(C(F)(F)F)C2)ccc1C(=N)NOCc1cc(Cl)cc2c1OCOC2", "note": "(centres unmarked) [Compound A19]", "values": [
      {"measurement": "damage to the test organisms", "setting": "[2]", "result": "little or no damage"},
      {"measurement": "damage to the test organisms", "setting": "[3]", "result": "little or no damage"},
      {"measurement": "damage to the test organisms", "setting": "[4]", "result": "little or no damage"},
      {"measurement": "damage to the test organisms", "setting": "[5]", "result": "little or no damage"},
      {"measurement": "damage to the test organisms", "setting": "[1]", "result": "little or no damage"},
      {"measurement": "damage to the test organisms", "setting": "[6]", "result": "little or no damage"}
    ]},
    {"smiles": "Cc1cc(C2=NOC(c3cc(Cl)cc(Cl)c3)(C(F)(F)F)C2)ccc1C(=N)NOC(C)C(=O)Nc1ccccc1", "note": "(centres unmarked) [Compound A24]", "values": [
      {"measurement": "damage to the test organisms", "setting": "[2]", "result": "little or no damage"},
      {"measurement": "damage to the test organisms", "setting": "[3]", "result": "little or no damage"},
      {"measurement": "damage to the test organisms", "setting": "[4]", "result": "little or no damage"},
      {"measurement": "damage to the test organisms", "setting": "[5]", "result": "little or no damage"},
      {"measurement": "damage to the test organisms", "setting": "[1]", "result": "little or no damage"},
      {"measurement": "damage to the test organisms", "setting": "[6]", "result": "little or no damage"}
    ]},
    {"smiles": "[H]/N=C(\\NOCC#CC)c1ccc(C2=NOC(c3cc(Cl)cc(Cl)c3)(C(F)(F)F)C2)cc1C", "note": "(centres unmarked) [Compound A25]", "values": [
      {"measurement": "pest or weed control at 200 ppm", "setting": "[1]; [7]", "result": "≥ 80", "unit": "%"}
    ]},
    {"smiles": "Cc1cc(C2=NOC(c3cc(Cl)cc(Cl)c3)(C(F)(F)F)C2)ccc1C(=N)NOCC1CCCCC1", "note": "(centres unmarked) [Compound A26]", "values": [
      {"measurement": "damage to the test organisms", "setting": "[2]", "result": "little or no damage"},
      {"measurement": "damage to the test organisms", "setting": "[3]", "result": "little or no damage"},
      {"measurement": "damage to the test organisms", "setting": "[4]", "result": "little or no damage"},
      {"measurement": "damage to the test organisms", "setting": "[5]", "result": "little or no damage"},
      {"measurement": "damage to the test organisms", "setting": "[1]", "result": "little or no damage"},
      {"measurement": "damage to the test organisms", "setting": "[6]", "result": "little or no damage"}
    ]},
    {"smiles": "[H]/N=C(\\NOCCC)c1ccc(C2=NOC(c3cc(Cl)cc(Cl)c3)(C(F)(F)F)C2)cc1C", "note": "(centres unmarked) [Compound A27]", "values": [
      {"measurement": "pest or weed control at 200 ppm", "setting": "[1]; [7]", "result": "≥ 80", "unit": "%"}
    ]},
    {"smiles": "COc1ccc(C(=O)CONC(=N)c2ccc(C3=NOC(c4cc(Cl)cc(Cl)c4)(C(F)(F)F)C3)cc2C)cc1", "note": "(centres unmarked) [Compound A28]", "values": [
      {"measurement": "damage to the test organisms", "setting": "[2]", "result": "little or no damage"},
      {"measurement": "damage to the test organisms", "setting": "[3]", "result": "little or no damage"},
      {"measurement": "damage to the test organisms", "setting": "[4]", "result": "little or no damage"},
      {"measurement": "damage to the test organisms", "setting": "[5]", "result": "little or no damage"},
      {"measurement": "damage to the test organisms", "setting": "[1]", "result": "little or no damage"},
      {"measurement": "damage to the test organisms", "setting": "[6]", "result": "little or no damage"}
    ]},
    {"smiles": "Cc1cc(C2=NOC(c3cc(Cl)cc(Cl)c3)(C(F)(F)F)C2)ccc1C(=N)NOCc1sc(Cl)nc1C(F)(F)F", "note": "(centres unmarked) [Compound A32]", "values": [
      {"measurement": "damage to the test organisms", "setting": "[2]", "result": "little or no damage"},
      {"measurement": "damage to the test organisms", "setting": "[3]", "result": "little or no damage"},
      {"measurement": "damage to the test organisms", "setting": "[4]", "result": "little or no damage"},
      {"measurement": "damage to the test organisms", "setting": "[5]", "result": "little or no damage"},
      {"measurement": "damage to the test organisms", "setting": "[1]", "result": "little or no damage"},
      {"measurement": "damage to the test organisms", "setting": "[6]", "result": "little or no damage"}
    ]},
    {"smiles": "CCOC(=O)c1ccc(CONC(=N)c2ccc(C3=NOC(c4cc(Cl)cc(Cl)c4)(C(F)(F)F)C3)cc2C)o1", "note": "(centres unmarked) [Compound A33]", "values": [
      {"measurement": "damage to the test organisms", "setting": "[2]", "result": "little or no damage"},
      {"measurement": "damage to the test organisms", "setting": "[3]", "result": "little or no damage"},
      {"measurement": "damage to the test organisms", "setting": "[4]", "result": "little or no damage"},
      {"measurement": "damage to the test organisms", "setting": "[5]", "result": "little or no damage"},
      {"measurement": "damage to the test organisms", "setting": "[1]", "result": "little or no damage"},
      {"measurement": "damage to the test organisms", "setting": "[6]", "result": "little or no damage"}
    ]}
  ]
}
